Test results published in publication PMC9527238, “Glutamate and GABAA receptor crosstalk mediates homeostatic regulation of neuronal excitation in the mammalian brain” (Signal Transduction and Targeted Therapy, 2022).

What was measured:
Type in all cases: cell-based
α1 β2^E181G γ2 GABAAR = target: T1, α1 β2^E181G γ2 GABAAR (Rattus norvegicus, UniProt P62813+P63138, E206G); test: Patch clamp, HEK293, mutant GABAAR; conditions: normalized to wild-type α1β2γ2; for Relative potentiation: glutamate 100 μM co-applied with GABA 1 μM
T1 construct: expressed in transfected cells; host or cells: HEK293
Excerpt: (§1) The subunits are color-coded individually. The boxed regions are further enlarged in the middle panels, highlighting the predicted glutamate binding pocket in the α+ and β− interface, just below the loop C. […] Relative potentiation was obtained by normalizing potentiation observed in the mutated receptor to that in the respective wild-type receptor.
(§2) To positively confirm one of these two putative binding sites involved in glutamate binding, we performed a systemic mutational analysis of critical amino acids around these two sites followed by electrophysiological characterizations of their impacts on glutamate potentiation in HEK293 cells expressing wild-type or mutated α1β2γ2 GABAARs (Table 1).
(§3) HEK293 cells were cultured in DMEM (Invitrogen) supplemented with 10% fetal bovine serum. Cells were grown to 40–60% confluence and transiently transfected using Lipofectamine 2000 (Invitrogen) with 1:0.5–1 plasmid/lipid ratio. Cells were transfected with a pBK-CMV expression vector containing a rat recombinant GABAAR α, β or γ subunits. Co-transections were done with a plasmid ratio of 1:1 αβ and 2:2:1 for αβγ subunit combinations, respectively. pcDNA3.1-GFP was also co-transfected along with GABAAR subunits as a transfected marker in order to facilitate the visualization of the transfected cells during electrophysiological experiments. Cells were re-plated on glass coverslips after 15–20 h transfection and were cultured for an additional 15–24 h before whole-cell patch-clamp recordings.
(§4) The site-directed mutagenesis of α, β or γ subunits were performed by using the QuikChange method (Stratagene). […] Wild-type or mutant subunits were transfected in HEK293 cells and subjected to electrophysiology examinations.
(§5) Whole-cell patch-clamp recordings were performed under voltage-clamp mode using an Axopatch 200B or 1D patch-clamp amplifier (Molecular Devices) on HEK293 cells and cultured neurons. Whole-cell currents were recorded at a holding potential of −60 mV, and signals were filtered at 2 kHz, digitized at 10 kHz (Digidata 1322 A). Recording pipettes (3–5 MΩ) were filled with the intracellular solution that contained (mM): CsCl 140, HEPES 10, Mg-ATP 4, QX-314 5, pH 7.20; osmolarity, 290–295 mOsm. BAPTA (10 mM) was added in the intracellular solution. The coverslips were continuously superfused with the extracellular solution containing (mM): NaCl 140, KCl 5.4, HEPES 10, MgCl2 1.0, CaCl2 1.3, glucose 20, pH 7.4; osmolarity, 305–315 mOsm. […] Dose–response curves were created by fitting data to Hill equation: I = Imax/[1 + (EC50/[A])^n], where I is the current, Imax is the maximum current, [A] is a given concentration of agonist, n is the Hill coefficient. […] All experiments were performed at room temperature.

α1^E137G β2 γ2 GABAAR = target: T2, α1^E137G β2 γ2 GABAAR (Rattus norvegicus, UniProt P62813+P63138, E164G); test: Patch clamp, HEK293, mutant GABAAR; conditions: Glu 1 mM; GABA 1 µM; normalized to wild-type α1β2γ2
T2 construct: expressed in transfected cells; host or cells: HEK293
Excerpt: as §1, §2, §3, §4, §5

α1^K104D β2 γ2 GABAAR = target: T3, α1^K104D β2 γ2 GABAAR (Rattus norvegicus, UniProt P62813+P63138, K131D); test: Patch clamp, HEK293, mutant GABAAR; conditions: Glu 1 mM; GABA 1 µM; normalized to wild-type α1β2γ2
T3 construct: expressed in transfected cells; host or cells: HEK293
Excerpt: as §1, §2, §3, §4, §5

α1^K155D β2 γ2 GABAAR = target: T4, α1^K155D β2 γ2 GABAAR (Rattus norvegicus, UniProt P62813+P63138, K182D); test: Patch clamp, HEK293, mutant GABAAR; conditions: Glu 1 mM; GABA 1 µM; normalized to wild-type α1β2γ2
T4 construct: expressed in transfected cells; host or cells: HEK293
Excerpt: as §1, §2, §3, §4, §5

α1/β1/γ2 GABAAR = target: T5, α1/β1/γ2 GABAAR (Rattus norvegicus, UniProt P15431+P62813); test: Patch clamp, HEK293, β1-containing GABAAR; conditions: wild-type α1/β1/γ2
T5 construct: expressed in transfected cells; host or cells: HEK293

αE137Gβ GABAAR = target: T6, αE137Gβ GABAAR (Rattus norvegicus, UniProt P62813+P63138, E164G); test: Patch clamp, HEK293, mutant α1β2 GABAAR; conditions: HEK293, read-out: Glutamate potentiation of GABA currents, % of control, normalized to wild-type α1β2
T6 construct: expressed in transfected cells; host or cells: HEK293
Procedure: as §1, §3, §4, §5

αK104Dβ GABAAR = target: T7, αK104Dβ GABAAR (Rattus norvegicus, UniProt P62813+P63138, K131D); test: Patch clamp, HEK293, mutant α1β2 GABAAR; conditions: HEK293, read-out: Glutamate potentiation of GABA currents, % of control, normalized to wild-type α1β2
T7 construct: expressed in transfected cells; host or cells: HEK293
Procedure: as §1, §3, §4, §5

αK155Dβ GABAAR = target: T8, αK155Dβ GABAAR (Rattus norvegicus, UniProt P62813+P63138, K182D); test: Patch clamp, HEK293, mutant α1β2 GABAAR; conditions: HEK293, read-out: Glutamate potentiation of GABA currents, % of control, normalized to wild-type α1β2
T8 construct: expressed in transfected cells; host or cells: HEK293
Procedure: as §1, §3, §4, §5

αβE181G GABAAR = target: T9, αβE181G GABAAR (Rattus norvegicus, UniProt P62813+P63138, E206G); test: Patch clamp, HEK293, mutant α1β2 GABAAR; conditions: HEK293, read-out: Glutamate potentiation of GABA currents, % of control, normalized to wild-type α1β2
T9 construct: expressed in transfected cells; host or cells: HEK293
Procedure: as §1, §3, §4, §5

αE137GβE181G GABAAR = target: T10, αE137GβE181G GABAAR (Rattus norvegicus, UniProt P62813+P63138, E164G/E206G); test: Patch clamp, HEK293, double mutant α1β2 GABAAR; conditions: HEK293, read-out: Glutamate potentiation of GABA currents, % of control, normalized to wild-type α1β2
T10 construct: expressed in transfected cells; host or cells: HEK293
Excerpt: as §1
(§6) To further investigate the characteristics of these four residues, double amino acid substitutions were introduced at residue pairs that are located at different (α1β2) subunits (Fig. 3f and Supplementary Fig. S6b).
as §3, §4
(§7) Whole-cell patch-clamp recordings were performed under voltage-clamp mode using an Axopatch 200B or 1D patch-clamp amplifier (Molecular Devices) on HEK293 cells and cultured neurons. Whole-cell currents were recorded at a holding potential of −60 mV, and signals were filtered at 2 kHz, digitized at 10 kHz (Digidata 1322 A). Recording pipettes (3–5 MΩ) were filled with the intracellular solution that contained (mM): CsCl 140, HEPES 10, Mg-ATP 4, QX-314 5, pH 7.20; osmolarity, 290–295 mOsm. BAPTA (10 mM) was added in the intracellular solution.

αK104D,E137Gβ GABAAR = target: T11, αK104D,E137Gβ GABAAR (Rattus norvegicus, UniProt P62813+P63138, E164G/K131D); test: Patch clamp, HEK293, double mutant α1β2 GABAAR; conditions: HEK293, read-out: Glutamate potentiation of GABA currents, % of control, normalized to wild-type α1β2
T11 construct: expressed in transfected cells; host or cells: HEK293
Excerpt: as §1, §6, §3, §4, §7

[1] = target: T12, αK104βE181G GABAAR (α1 K104D and β2 E181G) (Rattus norvegicus, UniProt P62813+P63138, E206G/K131D); test: Patch clamp, HEK293, double mutant α1β2 GABAAR; conditions: HEK293, read-out: Glutamate potentiation of GABA currents, % of control, normalized to wild-type α1β2
T12 construct: expressed in transfected cells; host or cells: HEK293
Excerpt: as §1, §6, §3, §4, §7

T1 sequence (P62813 28-455): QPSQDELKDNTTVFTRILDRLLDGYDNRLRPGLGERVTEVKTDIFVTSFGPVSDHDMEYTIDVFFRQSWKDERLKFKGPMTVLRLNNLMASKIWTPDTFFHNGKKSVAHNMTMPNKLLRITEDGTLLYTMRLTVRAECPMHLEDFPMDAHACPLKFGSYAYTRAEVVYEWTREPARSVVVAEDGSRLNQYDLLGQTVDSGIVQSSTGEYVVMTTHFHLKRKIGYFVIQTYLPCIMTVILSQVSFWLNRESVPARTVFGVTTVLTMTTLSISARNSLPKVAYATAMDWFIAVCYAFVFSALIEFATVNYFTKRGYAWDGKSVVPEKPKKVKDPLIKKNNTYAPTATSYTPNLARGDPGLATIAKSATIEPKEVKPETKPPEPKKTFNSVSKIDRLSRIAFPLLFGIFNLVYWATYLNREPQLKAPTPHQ
T1 sequence (P63138 26-474 E206G): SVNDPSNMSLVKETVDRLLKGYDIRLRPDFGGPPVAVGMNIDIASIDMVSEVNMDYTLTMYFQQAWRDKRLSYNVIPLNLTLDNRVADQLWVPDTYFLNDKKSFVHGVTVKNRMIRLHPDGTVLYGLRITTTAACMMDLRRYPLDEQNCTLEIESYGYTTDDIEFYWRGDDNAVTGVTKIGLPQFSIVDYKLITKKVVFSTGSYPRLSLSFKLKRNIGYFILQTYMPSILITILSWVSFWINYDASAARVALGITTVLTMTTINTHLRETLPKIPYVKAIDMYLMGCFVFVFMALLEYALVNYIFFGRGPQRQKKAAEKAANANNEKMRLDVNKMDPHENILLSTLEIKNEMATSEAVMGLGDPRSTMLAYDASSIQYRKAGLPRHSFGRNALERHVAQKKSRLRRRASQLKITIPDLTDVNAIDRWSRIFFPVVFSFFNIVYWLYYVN
T1 sequence (P18508 39-466 partner): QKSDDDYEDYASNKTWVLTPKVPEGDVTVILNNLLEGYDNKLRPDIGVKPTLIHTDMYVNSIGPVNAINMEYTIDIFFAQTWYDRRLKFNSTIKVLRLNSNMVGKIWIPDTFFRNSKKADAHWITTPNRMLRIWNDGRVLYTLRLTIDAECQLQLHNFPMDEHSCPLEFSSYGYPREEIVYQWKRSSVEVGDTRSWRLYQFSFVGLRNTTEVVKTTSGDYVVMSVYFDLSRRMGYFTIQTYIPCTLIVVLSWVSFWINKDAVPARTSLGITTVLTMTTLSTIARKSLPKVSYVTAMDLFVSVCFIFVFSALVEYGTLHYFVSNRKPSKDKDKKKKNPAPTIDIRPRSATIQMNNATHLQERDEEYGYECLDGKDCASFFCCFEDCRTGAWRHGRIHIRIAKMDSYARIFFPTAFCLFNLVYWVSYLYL
T12 sequence (P62813 28-455 K131D): as the sequence (P62813 28-455) above, with K104D counted along it
T12 sequence (P63138 26-474 E206G): as the sequence (P63138 26-474 E206G) above
T7 sequence (P62813 28-455 K131D): as the sequence (P62813 28-455) above, with K104D counted along it
T7 sequence (P63138 26-474): as the sequence (P63138 26-474 E206G) above, with G181E counted along it
T9 sequence (P62813 28-455): as the sequence (P62813 28-455) above
T9 sequence (P63138 26-474 E206G): as the sequence (P63138 26-474 E206G) above
T8 sequence (P62813 28-455 K182D): as the sequence (P62813 28-455) above, with K155D counted along it
T8 sequence (P63138 26-474): as the sequence (P63138 26-474 E206G) above, with G181E counted along it
T10 sequence (P62813 28-455 E164G): as the sequence (P62813 28-455) above, with E137G counted along it
T10 sequence (P63138 26-474 E206G): as the sequence (P63138 26-474 E206G) above
T6 sequence (P62813 28-455 E164G): as the sequence (P62813 28-455) above, with E137G counted along it
T6 sequence (P63138 26-474): as the sequence (P63138 26-474 E206G) above, with G181E counted along it
T11 sequence (P62813 28-455 K131D/E164G): as the sequence (P62813 28-455) above, with K104D, E137G counted along it
T11 sequence (P63138 25-474 limits assumed): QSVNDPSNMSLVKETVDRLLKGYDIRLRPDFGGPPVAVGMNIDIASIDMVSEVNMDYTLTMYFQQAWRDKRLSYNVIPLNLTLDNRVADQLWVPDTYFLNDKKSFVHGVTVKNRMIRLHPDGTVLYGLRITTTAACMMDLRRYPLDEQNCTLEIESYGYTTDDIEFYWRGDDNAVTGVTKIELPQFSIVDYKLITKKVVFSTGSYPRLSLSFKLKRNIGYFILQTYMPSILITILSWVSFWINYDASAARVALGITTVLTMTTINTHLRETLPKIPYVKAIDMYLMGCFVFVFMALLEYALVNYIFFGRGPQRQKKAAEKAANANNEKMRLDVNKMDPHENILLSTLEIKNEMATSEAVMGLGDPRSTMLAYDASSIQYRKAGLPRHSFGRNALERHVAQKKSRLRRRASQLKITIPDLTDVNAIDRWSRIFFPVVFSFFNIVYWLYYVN
T3 sequence (P62813 28-455 K131D): as the sequence (P62813 28-455) above, with K104D counted along it
T3 sequence (P63138 26-474): as the sequence (P63138 26-474 E206G) above, with G181E counted along it
T3 sequence (P18508 39-466 partner): as the sequence (P18508 39-466 partner) above
T5 sequence (P62813 28-455): as the sequence (P62813 28-455) above
T5 sequence (P15431 26-474): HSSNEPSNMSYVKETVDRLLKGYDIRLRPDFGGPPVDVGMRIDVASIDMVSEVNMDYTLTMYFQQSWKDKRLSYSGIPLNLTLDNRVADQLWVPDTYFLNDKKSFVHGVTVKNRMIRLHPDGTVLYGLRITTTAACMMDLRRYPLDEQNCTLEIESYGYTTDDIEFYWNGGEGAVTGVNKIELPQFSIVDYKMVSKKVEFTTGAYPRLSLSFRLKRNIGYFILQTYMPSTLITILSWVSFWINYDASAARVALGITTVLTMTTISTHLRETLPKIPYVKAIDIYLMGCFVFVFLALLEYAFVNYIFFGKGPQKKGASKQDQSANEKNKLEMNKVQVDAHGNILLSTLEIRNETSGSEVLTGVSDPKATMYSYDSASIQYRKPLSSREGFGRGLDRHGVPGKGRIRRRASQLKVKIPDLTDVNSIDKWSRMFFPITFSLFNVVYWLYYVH
T5 sequence (P18508 39-466 partner): as the sequence (P18508 39-466 partner) above
T4 sequence (P62813 28-455 K182D): as the sequence (P62813 28-455) above, with K155D counted along it
T4 sequence (P63138 26-474): as the sequence (P63138 26-474 E206G) above, with G181E counted along it
T4 sequence (P18508 39-466 partner): as the sequence (P18508 39-466 partner) above
T2 sequence (P62813 28-455 E164G): as the sequence (P62813 28-455) above, with E137G counted along it
T2 sequence (P63138 26-474): as the sequence (P63138 26-474 E206G) above, with G181E counted along it
T2 sequence (P18508 39-466 partner): as the sequence (P18508 39-466 partner) above

SMILES: N[C@@H](CCC(=O)O)C(=O)O [glutamate, Glutamate]
- Relative potentiation, % of control (α1 β2^E181G γ2 GABAAR; Glu 1 mM, GABA 1 µM): 1.8 ± 9.6%
- Relative potentiation (α1 β2^E181G γ2 GABAAR): 1.6 ± 11.6%
- Relative potentiation (α1 β2^E181G γ2 GABAAR; listed as Glu): 1.6 ± 11.6%
- Relative potentiation, % of control (α1^E137G β2 γ2 GABAAR): 26.9 ± 6.4%
- Relative potentiation, % of control (α1^K104D β2 γ2 GABAAR): 18.6 ± 6.3%
- Relative potentiation, % of control (α1^K155D β2 γ2 GABAAR): 19.8 ± 11.7%
- potentiation of GABA-induced currents by glutamate (α1/β1/γ2 GABAAR): could also potentiate GABA-induced currents
- activity at 100 µM (αE137Gβ GABAAR; Glu 100 μM): 109 ± 30.2%
- activity at 1000 µM (αE137Gβ GABAAR; Glu 1 mM): 88.4 ± 5.9%
- activity at 100 µM (αK104Dβ GABAAR; Glu 100 μM): 48.8 ± 9.5%
- activity at 1000 µM (αK104Dβ GABAAR; Glu 1 mM): 94.7 ± 20.7%
- activity at 100 µM (αK155Dβ GABAAR; Glu 100 μM): 76.3 ± 10.5%
- activity at 1000 µM (αK155Dβ GABAAR; Glu 1 mM): 90.1 ± 11.3%
- activity at 100 µM (αβE181G GABAAR; Glu 100 μM): 51.2 ± 9.5%
- activity at 1000 µM (αβE181G GABAAR; Glu 1 mM): 50.6 ± 8.4%
- activity at 100 µM (αE137GβE181G GABAAR; glutamate 100 μM): 9.2 ± 3%
- activity at 1000 µM (αE137GβE181G GABAAR; glutamate 1 mM): 16.2 ± 1.3%
- activity at 100 µM (αK104D,E137Gβ GABAAR; glutamate 100 μM): 17.3 ± 12.9%
- activity at 1000 µM (αK104D,E137Gβ GABAAR; glutamate 1 mM): 45.9 ± 20.9%
- activity at 100 µM ([1]; glutamate 100 μM): 6.6%
- activity at 1000 µM ([1]; glutamate 1 mM): 27.4 ± 12.6%
